Measured values: patent US20100125081A1, “NEW COMPOUNDS 574” (ASTRAZENECA AB, priority 2008, published 2010)
Structures can show the parent of a compound that is named as a salt.

Target: T1, human β-Secretase (Homo sapiens, UniProt P56817)
T1 construct: soluble part of the human β-Secretase (AA 1-AA 460); Fc domain of IgG1 (C); made in house
Experiment: TR-FRET assay (β-secretase enzyme, sBACE-Fc)
Type: biochemical
Conditions: soluble human β-secretase (AA 1-460) Fc fusion, substrate (Europium)CEVNLDAEFK(Qsy7) 100 nM, pH 4.5; unit inferred, nM taken
Description: The β-secretase enzyme used in the TR-FRET is prepared as follows:
The cDNA for the soluble part of the human β-Secretase (AA 1-AA 460) was cloned using the ASP2-Fc10-1-IRES-GFP-neoK mammalian expression vector. The gene was fused to the Fc domain of IgG1 (affinity tag) and stably cloned into HEK 293 cells.
The enzyme (truncated form) was diluted to 6 μg/mL (stock 1.3 mg/mL) and the substrate (Europium)CEVNLDAEFK(Qsy7) to 200 nM (stock 120 μM) in reaction buffer (NaAcetate, chaps, triton x-100, EDTA pH4.5). The robotic systems Biomek FX and Velocity 11 were used for all liquid handling and the enzyme and substrate solutions were kept on ice until they were placed in the robotic system. Enzyme (9 μl) was added to the plate then 1 μl of compound in dimethylsulphoxide was added, mixed and pre-incubated for 10 minutes. Substrate (10 μl) was then added, mixed and the reaction proceeded for 15 minutes at room temperature. The reaction was stopped with the addition of Stop solution (7 μl, NaAcetate, pH 9). The fluorescence of the product was measured on a Victor II plate reader with an excitation wavelength of 340 nm and an emission wavelength of 615 nm. The assay was performed in a Costar 384 well round bottom, low volume, non-binding surface plate (Corning #3676). The final concentration of the enzyme was 2.7 μg/ml; the final concentration of substrate was 100 nM (Km of ˜250 nM). The dimethylsulphoxide control, instead of test compound, defined the 100% activity level and 0% activity was defined by wells lacking enzyme (replaced with reaction buffer).

T1 sequence (P56817 22-460): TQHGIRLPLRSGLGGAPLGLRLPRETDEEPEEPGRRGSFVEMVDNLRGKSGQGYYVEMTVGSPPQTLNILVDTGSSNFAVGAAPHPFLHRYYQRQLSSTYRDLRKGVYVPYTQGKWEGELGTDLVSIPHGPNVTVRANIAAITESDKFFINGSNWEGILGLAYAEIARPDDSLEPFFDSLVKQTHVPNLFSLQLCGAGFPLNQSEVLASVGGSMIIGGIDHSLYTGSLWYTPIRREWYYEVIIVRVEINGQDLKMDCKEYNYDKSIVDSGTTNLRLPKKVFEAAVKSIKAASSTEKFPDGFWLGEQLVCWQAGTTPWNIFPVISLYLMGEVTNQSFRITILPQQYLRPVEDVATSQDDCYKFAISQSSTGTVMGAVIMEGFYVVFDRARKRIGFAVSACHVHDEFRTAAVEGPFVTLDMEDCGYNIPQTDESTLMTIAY

SMILES | IC50 [nM]
NC1=NC(c2cccc(-c3cncnc3)c2)(c2ccnc(C(F)(F)F)c2)c2cccnc21 (single isomer, unassigned) [25, Isomer 1] | > 31600
NC1=NC(c2cccc(-c3cncnc3)c2)(c2ccnc(C(F)(F)F)c2)c2cccnc21 (single isomer, unassigned) [25, Isomer 2] | 176
NC1=NC(c2cccc(-c3cccc(Cl)c3)c2)(c2ccnc(C(F)(F)F)c2)c2cccnc21 (stereo not drawn) [Example 1, 5-(3′-Chlorobiphenyl-3-yl)-5-(2-(trifluoromethyl)pyridin-4-yl)-5H-pyrrolo[3,4-b]pyridin-7-amine] | 400
NC1=NC(c2cccc(-c3cncnc3)c2)(c2ccnc(C(F)(F)F)c2)c2cccnc21 (stereo not drawn) [Example 2, 5-(3-(pyrimidin-5-yl)phenyl)-5-(2-(trifluoromethyl)pyridin-4-yl)-5H-pyrrolo[3,4-b]pyridin-7-amine] | 350
NC1=NC(c2cccc(-c3cccnc3)c2)(c2ccnc(C(F)(F)F)c2)c2cccnc21 (stereo not drawn) [Example 3, 5-(3-(Pyridin-3-yl)phenyl)-5-(2-(trifluoromethyl)pyridin-4-yl)-5H-pyrrolo[3,4-b]pyridin-7-amine] | 560
Cc1cc(C2(c3cccc(-c4cncnc4)c3)N=C(N)c3ncccc32)cc(C)n1 (stereo not drawn) [Example 4, 5-(2,6-Dimethylpyridin-4-yl)-5-(3-(pyrimidin-5-yl)phenyl)-5H-pyrrolo[3,4-b]pyridin-7-amine] | 1800
Cc1cc(C2(c3cccc(-c4cncc(C#N)c4)c3)N=C(N)c3ncccc32)cc(C)n1 (stereo not drawn) [Example 5, 5-(3-(7-Amino-5-(2,6-dimethylpyridin-4-yl)-5H-pyrrolo[3,4-b]pyridin-5-yl)phenyl)nicotinonitrile] | 2400
COc1c(F)cc(C2(c3ccc(F)c(-c4cncnc4)c3)N=C(N)c3ncccc32)cc1F (stereo not drawn) [Example 6, 5-(3,5-Difluoro-4-methoxyphenyl)-5-(4-fluoro-3-(pyrimidin-5-yl)phenyl)-5H-pyrrolo[3,4-b]pyridin-7-amine] | 156
COc1ccc(C2(c3cccc(-c4cncnc4)c3)N=C(N)c3ncccc32)cc1Cl (stereo not drawn) [Example 7, 5-(3-Chloro-4-methoxyphenyl)-5-(3-(pyrimidin-5-yl)phenyl)-5H-pyrrolo[3,4-b]pyridin-7-amine] | 248
COc1ccc(C2(c3cccc(-c4cnccn4)c3)N=C(N)c3ncccc32)cc1Cl (stereo not drawn) [Example 8, 5-(3-Chloro-4-methoxyphenyl)-5-(3-(pyrazin-2-yl)phenyl)-5H-pyrrolo[3,4-b]pyridin-7-amine] | 610
NC1=NC(c2cccc(-c3cncnc3)c2)(c2ccc(OC(F)F)c(C3CC3)c2)c2cccnc21 (stereo not drawn) [Example 9, 5-(3-Cyclopropyl-4-(difluoromethoxy)phenyl)-5-(3-(pyrimidin-5-yl)phenyl)-5H-pyrrolo[3,4-b]pyridin-7-amine acetic acid] | 33
Cc1cc(C2(c3cccc(-c4cncnc4)c3)N=C(N)c3ncc(Cl)cc32)ccn1 (stereo not drawn) [Example 10, 3-Chloro-5-(2-methylpyridin-4-yl)-5-(3-(pyrimidin-5-yl)phenyl)-5H-pyrrolo[3,4-b]pyridin-7-amine] | 639
COc1ccc(C2(c3cccc(-c4cncnc4)c3)N=C(N)c3ncc(C)cc32)cc1 (stereo not drawn) [Example 11, 5-(4-Methoxyphenyl)-3-methyl-5-(3-(pyrimidin-5-yl)phenyl)-5H-pyrrolo[3,4-b]pyridin-7-amine] | 2120
Cc1cc(C2(c3cccc(-c4cncnc4)c3)N=C(N)c3ncccc32)cc(C)c1OC(F)F (stereo not drawn) [Example 12, 5-(4-(Difluoromethoxy)-3,5-dimethylphenyl)-5-(3-(pyrimidin-5-yl)phenyl)-5H-pyrrolo[3,4-b]pyridin-7-amine] | 47
Cc1cc(C2(c3cccc(-c4cnccn4)c3)N=C(N)c3ncccc32)cc(C)c1OC(F)F (stereo not drawn) [Example 13, 5-(4-(Difluoromethoxy)-3,5-dimethylphenyl)-5-(3-(pyrazin-2-yl)phenyl)-5H-pyrrolo[3,4-b]pyridin-7-amine] | 38
Cc1cc(C2(c3cccc(-c4cncnc4)c3)N=C(N)c3ncccc32)cc(C)c1F (stereo not drawn) [Example 14, 5-(4-Fluoro-3,5-dimethylphenyl)-5-(3-(pyrimidin-5-yl)phenyl)-5H-pyrrolo[3,4-b]pyridin-7-amine] | 593
COc1c(C)cc(C2(c3cccc(-c4cnccn4)c3)N=C(N)c3ncccc32)cc1F (stereo not drawn) [Example 15, 5-(3-Fluoro-4-methoxy-5-methylphenyl)-5-(3-(pyrazin-2-yl)phenyl)-5H-pyrrolo[3,4-b]pyridin-7-amine trifluoroacetic acid salt] | 96
NC1=NC(c2cccc(-c3cncnc3)c2)(c2ccnc(OCC(F)(F)F)c2)c2cccnc21 (stereo not drawn) [Example 16, 5-(3-(Pyrimidin-5-yl)phenyl)-5-(2-(2,2,2-trifluoroethoxy)pyridin-4-yl)-5H-pyrrolo[3,4-b]pyridin-7-amine 0.2 acetic acid] | 1600
NC1=NC(c2cccc(-c3cncnc3)c2)(c2ccnc(OC=C(F)F)c2)c2cccnc21 (stereo not drawn) [Example 17, 5-(2-(2,2-Difluorovinyloxy)pyridin-4-yl)-5-(3-(pyrimidin-5-yl)phenyl)-5H-pyrrolo[3,4-b]pyridin-7-amine 0.2 acetic acid] | 1140
NC1=NC(c2cccc(-c3cncnc3)c2)(c2ccc(OC(F)F)c(F)c2)c2cccnc21 (stereo not drawn) [Example 18, 5-(4-(Difluoromethoxy)-3-fluorophenyl)-5-(3-(pyrimidin-5-yl)phenyl)-5H-pyrrolo[3,4-b]pyridin-7-amine] | 204
COc1ccnc(-c2cccc(C3(c4ccnc(C(F)(F)F)c4)N=C(N)c4ncccc43)c2)c1 (stereo not drawn) [Example 19, 5-(3-(4-methoxypyridin-2-yl)phenyl)-5-(2-(trifluoromethyl)pyridin-4-yl)-5H-pyrrolo[3,4-b]pyridin-7-amine] | 359
Cc1cc(C2(c3cccc(-c4cncnc4)c3)N=C(N)c3ncccc32)cc(C(F)F)n1 (stereo not drawn) [Example 20, 5-(2-(Difluoromethyl)-6-methylpyridin-4-yl)-5-(3-(pyrimidin-5-yl)phenyl)-5H-pyrrolo[3,4-b]pyridin-7-amine] | 445
NC1=NC(c2cccc(-c3cncc(Cl)c3)c2)(c2ccnc(C(F)(F)F)c2)c2cccnc21 (stereo not drawn) [Example 21, 5-(3-(5-Chloropyridin-3-yl)phenyl)-5-(2-(trifluoromethyl)pyridin-4-yl)-5H-pyrrolo[3,4-b]pyridin-7-amine] | 239
N#Cc1ccnc(-c2cccc(C3(c4ccnc(C(F)(F)F)c4)N=C(N)c4ncccc43)c2)c1 (stereo not drawn) [Example 22, 2-(3-(7-Amino-5-(2-(trifluoromethyl)pyridin-4-yl)-5H-pyrrolo[3,4-b]pyridin-5-yl)phenyl)isonicotinonitrile] | 1800
COc1ccc(C2(c3cccc(-c4cnccn4)c3)N=C(N)c3ncccc32)cc1C(F)F (stereo not drawn) [Example 23, 5-(3-(difluoromethyl)-4-methoxyphenyl)-5-(3-(pyrazin-2-yl)phenyl)-5H-pyrrolo[3,4-b]pyridin-7-amine] | 288
COc1ccc(C2(c3cccc(-c4cncnc4)c3)N=C(N)c3ncccc32)cc1C(F)F (stereo not drawn) [Example 24, 5-(3-(Difluoromethyl)-4-methoxyphenyl)-5-(3-(pyrimidin-5-yl)phenyl)-5H-pyrrolo[3,4-b]pyridin-7-amine] | 212
Cc1cc(C2(c3cccc(-c4cncnc4)c3)N=C(N)c3ncccc32)cc(C)c1OCF (stereo not drawn) [Example 26, 5-(4-(Fluoromethoxy)-3,5-dimethylphenyl)-5-(3-(pyrimidin-5-yl)phenyl)-5H-pyrrolo[3,4-b]pyridin-7-amine] | 42
